The record followed here is patent publication US7691848B2, “Pyrrolobenzodiazepine arylcarboxamides and derivatives thereof as follicle-stimulating hormone receptor antagonists” (Wyeth, priority 2005, dated 2010).

Where a name gives a salt, the structure may show the parent alone.

Series [1] addresses T1, human FSH receptor (Homo sapiens, UniProt P23945).
T1 construct: host or cells: CHO-K1 (CHO FSH-R 6CRE-Luc, 1D7 cells)
T1 sequence (P23945 18-695): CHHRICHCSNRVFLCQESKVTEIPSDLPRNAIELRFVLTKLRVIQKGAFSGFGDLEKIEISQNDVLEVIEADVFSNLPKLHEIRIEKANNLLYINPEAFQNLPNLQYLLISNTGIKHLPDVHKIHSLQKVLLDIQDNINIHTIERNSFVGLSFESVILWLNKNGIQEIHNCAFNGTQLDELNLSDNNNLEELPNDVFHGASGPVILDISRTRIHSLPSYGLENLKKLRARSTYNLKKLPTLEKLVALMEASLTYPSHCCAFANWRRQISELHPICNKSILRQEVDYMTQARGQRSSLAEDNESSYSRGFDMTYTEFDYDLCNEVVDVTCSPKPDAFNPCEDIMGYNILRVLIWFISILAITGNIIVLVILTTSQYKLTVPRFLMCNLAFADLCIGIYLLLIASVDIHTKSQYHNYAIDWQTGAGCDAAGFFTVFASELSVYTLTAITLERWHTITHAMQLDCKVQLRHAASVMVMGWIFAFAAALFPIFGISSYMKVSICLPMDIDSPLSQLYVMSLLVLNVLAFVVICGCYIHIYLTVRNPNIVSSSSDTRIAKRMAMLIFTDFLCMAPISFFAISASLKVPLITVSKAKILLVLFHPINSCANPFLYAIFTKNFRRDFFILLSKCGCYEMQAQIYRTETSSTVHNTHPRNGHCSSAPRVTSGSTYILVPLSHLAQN
The series can be described thus: Follicle-Stimulating Hormone Receptor-Dependent Cre-Luciferase Reporter Gene Assay (CHO FSH-R 6CRE-Luc cells). It counts as cell-based. The note with it: for IC50: dose-response format, in presence of EC50 of purified human FSH. An excerpt: Follicle-Stimulating Hormone Receptor-Dependent Cre-Luciferase Reporter Gene Assay for the Identification of Follicle-Stimulating Hormone (FSH) Antagonists
A Chinese hamster ovarian cell line that stably produces the human FSH receptor and a luciferase reporter gene regulated by cAMP response elements was used to identify and determine the relative potencies of human FSH receptor antagonists. See for example, Kelton, C. A., et al. Mol. Cell. Endocrinol. 89:141-151 (1992), Tilly, J. L., et al. Endocrinology 131:799-806(1992), and George, S. E., et al. J. Biomol. Screening 2:235-240 (1997).
Compound Vehicle: Stock compounds were solubilized in an appropriate vehicle, e.g., phosphate buffered saline (PBS) or dimethyl sulfoxide (DMSO), at 30 mM. The compounds were subsequently diluted in DMSO to working dilutions of 1 and 20 or 30 mM for 2-dose testing format and 1 μM-10 mM for dose-response format. The DMSO dilutions were diluted 500-fold in sterile growth medium [D-MEM/F-12 (GIBCO/BRL; Grand Island, NY) containing 15 mM HEPES, 2 mM 1-glutamine, pyridoxine hydrochloride, phenol red and 5% FetalClone® II (HyClone Laboratories, Inc; Logan, Utah), 0.2% DMSO, 100 units penicillin G/ml, and 100 μg streptomycin sulfate/ml (GIBCO/BRL)]. The concentration of the vehicle in each of the compound dilutions was the same.
Positive Controls: Purified human FSH (>98%) was purchased from Cortex Biochem, Inc. (San Leandro, Calif.) and 3-[(2S*,5R*)-5-{[2-(1H-Indol-3-yl)-ethylcarbamoyl]-methyl}-4-oxo-2-(5-phenylethynyl-thiophen-2-yl)-thiazolidin-3-yl]-benzamide (an FSH-R thiazolidinone antagonist) was prepared by processes described by R. A. Scheuerman et al. in U.S. Pat. No. 6,426,357 (Affymax).
The CHO FSH-R 6CRE-Luc cells (1D7 cells) were obtained from Affymax (Palo Alto, Calif.). These Chinese hamster ovary cells (CHO-K1) were engineered genetically to stably express the recombinant human FSH receptor gene and a luciferase reporter gene under the regulation of 6 copies of a cAMP response element. The cells were plated one day prior to treatment into 96-well white opaque plates at a density of 50,000 cells/100 μl/well in growth medium. On the day of treatment, the growth medium was removed from the wells by aspiration and 50 μl of fresh growth medium was added to each well. The cells were incubated at 37° C. in a humidified incubator with 5% CO2/95% air.
The treated cells were incubated for 4 hours at 37° C. in a humidified incubator with 5% CO2/95% air. At the end of the incubation period, luciferase activity was measured by chemiluminescence using a commercially available kit (LucScreen, Tropix, Inc., Bedford, Mass.) according to the manufacturer's specifications, except that Buffer 1 and Buffer 2 were mixed together in equal proportion prior to the addition of 100 μl of the combined reagents to each well. Chemiluminescence was detected using a luminometer (EG & G Berthold Microlumat LB 96 P, Wallac, Gaithersburg, Md.) with chemiluminescence measured for 1 sec/well. Background luminescence was measured for each well prior to the addition of the LucScreen reagent.
In the 96-well 2-dose format, each compound was tested in duplicate at each dose. […] One plate was used to test a maximum of 22 compounds.
The EC50 of purified human FSH alone was tested in triplicate with each test compound. The doses chosen to test each compound were extrapolated from the initial 2-dose screening process. Along with the test compounds, purified human FSH also was tested in a dose response (0.03, 0.1, 0.3, 1, 3, 10, and 30 ng/ml) for a positive control and quality control. One plate was used for 3 test compounds and the FSH positive control.
Luciferase activity is expressed as relative light units/sec/well. Luciferase activity in antagonist was compared to the appropriate negative and positive controls. For 2-dose testing, results are reported as luciferase activity and are expressed as percent inhibition of the response obtained from the EC50 of FSH.

Where [2] appears, read: 2-dose format, concentration in parentheses 30 μM, inhibition of the response to EC50 of FSH.

By melting point is commonly meant the temperature, or range, at which the solid turns liquid. `Cc1ccccc1-c1ccc(C(=O)N2Cc3ccc(C(=O)NCCc4ccc5c(c4)OCO5)n3Cc3ccccc32)cc1C` (as salt: hydrochloride) [Example 33]: the melting point was in the range of 154 to 157 °C.
As a reminder, the inhibition is the drop in the measured response relative to a control, in per cent. Turning to `COc1ccccc1-c1ccc(C(=O)N2Cc3ccc(C(=O)NCc4c(Cl)cccc4Oc4ccccc4)n3Cc3ccccc32)cc1` [Example 3, N-(2-CHLORO-6-PHENOXYBENZYL)-10-[(2′-METHOXY-1,1′-BIPHENYL-4-YL)CARBONYL]-10,11-DIHYDRO-5H-PYRROLO[2,1-C][1,4]BENZODIAZEPINE-3-CARBOXAMIDE], the inhibition at 30 µM in series [1] (setting [2]) amounted to 8%.
Consider `COc1ccccc1-c1ccc(C(=O)N2Cc3ccc(C(=O)N[C@@H](CO)c4ccccc4)n3Cc3ccccc32)cc1` [Example 4], for which the melting point lay in the range of 195 to 196 °C. In addition, in series [1] (setting [2]), the inhibition at 30 µM turned out to be 9%.
`COc1ccccc1-c1ccc(C(=O)N2Cc3ccc(C(=O)N[C@H](CO)c4ccccc4)n3Cc3ccccc32)cc1` [Example 5] came in with a melting point of 196 to 197 °C. Moreover, in series [1] (setting [2]), the inhibition at 30 µM is 14%.
Take `Cc1ccccc1-c1ccc(C(=O)N2Cc3ccc(C(=O)NCc4ccc(O)cc4)n3Cc3ccccc32)cc1C` [Example 9]: the inhibition at 30 µM in series [1] (setting [2]) was 37%.
The IC50 is the point on the concentration scale where inhibition reaches its midpoint. In the case of `Cc1ccccc1-c1ccc(C(=O)N2Cc3ccc(C(=O)NCc4ccc(CN)cc4)n3Cc3ccccc32)cc1C` [Example 11], the 50% inhibitory concentration (IC50) in series [1] is 14.9 µM.
`Cc1ccccc1-c1ccc(C(=O)N2Cc3ccc(C(=O)NCc4cccc(CN)c4)n3Cc3ccccc32)cc1C` [Example 12]: in series [1], the IC50 is 11.9 µM.
For the compound `Cc1ccccc1-c1ccc(C(=O)N2Cc3ccc(C(=O)NC(C)c4ccccc4)n3Cc3ccccc32)cc1C` (stereo not drawn) [Example 13], the melting point lay within 118 to 124 °C. For the same compound, the IC50 in series [1] worked out at 8.2 µM.
Compound `Cc1ccccc1-c1ccc(C(=O)N2Cc3ccc(C(=O)NCc4ccc(OC(F)(F)F)cc4)n3Cc3ccccc32)cc1C` [Example 19] gave a melting point of 147 to 149 °C. Also, in series [1] (setting [2]), the inhibition at 30 µM came out at 30%.
`Cc1ccccc1-c1ccc(C(=O)N2Cc3ccc(C(=O)NCc4ccccc4C(F)(F)F)n3Cc3ccccc32)cc1C` [Example 24]: the melting point is 126 to 128 °C. For the same compound, in series [1], the half-inhibitory concentration (IC50) was more than 30 µM.
Regarding `Cc1ccccc1-c1ccc(C(=O)N2Cc3ccc(C(=O)NCCCc4ccccc4)n3Cc3ccccc32)cc1C` [Example 25], the melting point was 183 to 184 °C. Further, the inhibition at 30 µM in series [1] (setting [2]) is 59%.
For the compound `Cc1ccccc1-c1ccc(C(=O)N2Cc3ccc(C(=O)NCCc4cccc(Cl)c4)n3Cc3ccccc32)cc1C` [Example 26], the melting point was 174 to 176 °C. In addition, the inhibition at 30 µM in series [1] (setting [2]) stood at 62%.
Turning to `Cc1ccccc1-c1ccc(C(=O)N2Cc3ccc(C(=O)NCCc4ccc(Cl)cc4)n3Cc3ccccc32)cc1C` [Example 27], the melting point lay in the range of 169 to 171 °C. The inhibition at 30 µM in series [1] (setting [2]) amounted to 52%.
The compound `COc1ccc(CCNC(=O)c2ccc3n2Cc2ccccc2N(C(=O)c2ccc(-c4ccccc4C)c(C)c2)C3)cc1OC` [Example 28, N-[2-(3,4-DIMETHOXYPHENYL)ETHYL]-10-[(2,2′-DIMETHYL-1,1′-BIPHENYL-4-YL)CARBONYL]-10,11- DIHYDRO-5H-PYRROLO[2,1-C][1,4]BENZODIAZEPINE-3-CARBOXAMIDE] returned a melting point of 130 to 136 °C. In addition, in series [1], the IC50 was more than 30 µM.
Compound `Cc1ccc(CCNC(=O)c2ccc3n2Cc2ccccc2N(C(=O)c2ccc(-c4ccccc4C)c(C)c2)C3)cc1` [Example 29] showed a melting point of 161 to 163 °C. Further, in series [1] (setting [2]), the inhibition at 30 µM was 52%.
Take `COc1ccc(CCNC(=O)c2ccc3n2Cc2ccccc2N(C(=O)c2ccc(-c4ccccc4C)c(C)c2)C3)cc1` [Example 30]: the melting point lay in the range of 170 to 172 °C. Further, the inhibition at 30 µM in series [1] (setting [2]) turned out to be 62%.
In the case of `Cc1ccccc1-c1ccc(C(=O)N2Cc3ccc(C(=O)NC(C)CCc4ccccc4)n3Cc3ccccc32)cc1C` (stereo not drawn) [Example 32], the melting point was in the range of 152 to 154 °C. The IC50 in series [1] was approximately 30 µM.
`COc1ccc(CNC(=O)c2ccc3n2Cc2ccccc2N(C(=O)c2ccc(-c4ccccc4C)c(OC)c2)C3)cc1` [Example 36, N-(4-METHOXYBENZYL)-10-[(2-METHOXY-2′-METHYL-1,1′-BIPHENYL-4-YL)CARBONYL]-10,11-DIHYDRO-5H-PYRROLO[2,1-C][1,4]BENZODIAZEPINE-3-CARBOXAMIDE] returned a melting point of 178 to 179 °C. Further, the inhibition at 30 µM in series [1] (setting [2]) stood at 60%.
`COc1cc(C(=O)N2Cc3ccc(C(=O)NCc4ccccc4C(F)(F)F)n3Cc3ccccc32)ccc1-c1ccccc1C` [Example 39, 10-[(2-METHOXY-2′-METHYL-1,1′-BIPHENYL-4-YL)CARBONYL]-N-[2-(TRIFLUOROMETHYL)BENZYL]-10,11-DIHYDRO-5H-PYRROLO[2,1-C][1,4]BENZODIAZEPINE-3-CARBOXAMIDE] showed a melting point of 165 to 167 °C. Besides, in series [1], the concentration for half-maximal inhibition (IC50) is more than 30 µM.
In turn, `COc1cc(C(=O)N2Cc3ccc(C(=O)NCc4ccccc4C)n3Cc3ccccc32)ccc1-c1ccccc1C` [Example 41, 10-[(2-METHOXY-2′-METHYL-1,1′-BIPHENYL-4-YL)CARBONYL]-N-(2-METHYLBENZYL)-10,11-DIHYDRO-5H-PYRROLO[2,1-C][1,4]BENZODIAZEPINE-3-CARBOXAMIDE] showed a melting point of 204 °C. Further, the inhibition at 30 µM in series [1] (setting [2]) was determined as 62%.
Turning to `COc1cc(C(=O)N2Cc3ccc(C(=O)NCCc4cccc(Cl)c4)n3Cc3ccccc32)ccc1-c1ccccc1C` [Example 51, N-[2-(3-CHLOROPHENYLETHYL]-10-[(2-METHOXY-2′-METHYL-1,1′-BIPHENYL-4-YL)CARBONYL]-10,11-DIHYDRO-5H-PYRROLO[2,1-C][1,4]BENZODIAZEPINE-3-CARBOXAMIDE], the IC50 in series [1] is more than 30 µM.
Compound `Cc1ccccc1-c1ccc(C(=O)N2Cc3ccc(C(=O)NCCCCc4ccccc4)n3Cc3ccccc32)cc1C` [Example 56] displayed a melting point of 129 to 131 °C.
For `COc1cc(C(=O)N2Cc3ccc(C(=O)NCCc4ccc5c(c4)OCO5)n3Cc3ccccc32)ccc1-c1ccccc1C` [Example 62, N-[2-(1,3-BENZODIOXOL-5-YL)ETHYL]-10-[(2-METHOXY-2′-METHYL-1,1′-BIPHENYL-4-YL)CARBONYL]-10,11-DIHYDRO-5H-PYRROLO[2,1-C][1,4]BENZODIAZEPINE-3-CARBOXAMIDE], the melting point lay within 178 to 179 °C.
In the case of `Cc1cc(Cl)ccc1OCC(=O)N1Cc2ccc(C(=O)NCc3ccc4c(c3)OCO4)n2Cc2ccccc21` [Example 76], the “CRE % inhibition (μM)” value in series [1] (setting [2]) is 15(30) %.
